“Also recorded” adds a separate entry of the source.
Tests used:
human dendritic cells = assay: Maturation marker expression in human dendritic cells (flow cytometry); assay type: cell-based; details: hDCs, 24 h; LPS 10 ng/ml
Excerpt: To test the impact of selected α,α-GM-LAMs 1 and 3 on maturation of human dendritic cells (hDCs), immature monocyte-derived hDCs were stimulated with 1 and 3 in a wide concentration range or with E. coli LPS as positive control. DCs are able to persistently sense pathogen-associated molecular patterns and present antigens to T lymphocytes, thereby initiating an adaptive immune response.[7]
None of the α,α-GM-LAMs exerted cytotoxic effects on DCs, as determined by propidium iodide staining (data not shown). […]
stimulatory molecules CD86 as well as the antigen presenting structures MHC class I and MHC class II, which are necessary for the induction of an adaptive immune response (SI-Figure 5). […]
up-regulation of the inhibitory B7-H1 (CD272) and Sialoadhesin (CD169), which is known to be indirectly up-regulated in DCs due to release of type-I interferons. […]
stimulator not only of the NF-κB- but also of the IRF-pathway. Stimulation of DCs with the monophosphoryl α,α- […]
SI-Figure 5. Bisphosphoryl α,α-GM-LAM 1 and monophosphoryl α,α-GM-LAM 3 induce the expression of maturation markers in human DCs. […] The cells were then harvested and the surface expression level of the indicated markers was measured by flow cytometry. […]

[1] = Storage stability in aqueous solution (MALDI-TOF analysis); assay type: physicochemical; details: 4 °C, several months, free acids at the phosphates
Protocol: Next, the free 6-OH group in the hexaacylated disaccharides 57 and 58 was phosphorylated by reaction with dibenzyl-(N,N′-diisopropylamino)phosphoramidite in the presence of a mild acid catalyst, 1H-tetrazole, and subsequent oxidation with mCPBA at −78 °C to furnish the bisphosphorylated hexaacylated products 61 and 62 in 91% and 89% yield, respectively. Final debenzylation by hydrogenation of 57, 61, and 62 on Pd-black followed by purification with gel permeation chromatography on Sephadex SX1 in toluene–methanol (2:1) afforded target bisphosphorylated Lipid A mimetics 1 and 2 and a monophosphorylated counterpart 3.

THP-1 cells = assay: IRF-3 and IκBα phosphorylation by western blotting in THP-1 cells; assay type: cell-based, human
Protocol: Supplementary SI-Figure 3
Dose-dependent responses (THP-1 cells: α,α-GM-LAM 1-3 and Re-LPS) at the concentration range 0.4 – 100 ng/ml which are presented in the Figure 5, were extended to the higher concentration range (up to 300 ng/ml).
SI-Figure 3. Dose-dependent expression of cytokines induced by α,α-GM-LAM 1-3 in macrophage cell line THP-1 compared to E. coli Re-LPS at the concentration range 0.4 – 300 ng/ml. (A) Production of TNF-α; (B) Induction of […]
Supplementary SI-Figure 4
Lipid A mimetic 1 was examined for the activation of NF-κB (Nuclear factor kappaB) and IRF3
(Interferon regulatory factor 3). IRF3 activation […]
noticeable after 1h stimulation, though was
LPS. At 1h stimulation the α,α-GM-LAM 1 was […]
whereas at 3h simulation compound 1 (at a […]
stronger phosphorylation of IκBa (P-IκBa levels) as well as the higher levels of IκBa (reflecting the NF-κB dependent re-synthesis of IκB following its
Thus, IRF3 activation and NF-κB activation […]
degradation and its NF-κB dependent resynthesis) […]
compared to LPS after 3h stimulation.
SI-Figure 4. NF-κB and IRF-3 activation by LPS and α,α-GM-LAM 1 in macrophage-like cell line THP-1. THP-1 cells were treated for 1 h (upper panel) or for 3 h (lower panel) with 1 or with E. coli O111:B4 LPS at the concentrations 10, 100 and 1000 ng/ml. Non treated cells (NT) or cells treated with DMSO were used as controls.
Cell extracts were separated by SDS polyacrylamide gel electrophoresis. Phosphorylated or total IRF-3 and IκBα was detected by western blotting as indicated. Actin detection was used as a control for equal loading in each line. […]
Supplementary SI-Figure 6
The relative contribution of hydrophobic (acyl chains of Lipid A) and electrostatic (phosphate groups of Lipid A) interactions at the dimerization interface of two TLR4·MD-2·LPS complexes as well as the impact of the molecular shape of MD-2–bound Lipid A on the initiation of TLR4-mediated immune response remains largely unknown. […]

| SMILES | DCs maturation and up-regulation of CD86, MHC class I and MHC class II compared to LPS (human dendritic cells) | stability on storage in aqueous solution [1] | activation of NF-κB compared with LPS (THP-1 cells; THP-1, 1 h stimulation) | IRF3 activation (IRF-3 phosphorylation) (THP-1 cells; THP-1, 3 h stimulation) | activation of NF-κB compared with LPS (P-IκBα and IκBα levels) (THP-1 cells; THP-1, 3 h stimulation, concentration higher than 50 nM) |
| --- | --- | --- | --- | --- | --- |
| CCCCCCCCCCCCCC(=O)O[C@H](CCCCCCCCCCC)CC(=O)O[C@@H]1[C@@H](NC(=O)C[C@@H](CCCCCCCCCCC)OC(=O)CCCCCCCCCCC)[C@@H](O[C@H]2O[C@H](CO)[C@@H](OC(=O)C[C@@H](CCCCCCCCCCC)OC(=O)CCCCCCCCCCC)[C@H](O)[C@@H]2OC)O[C@H](CO)[C@H]1OP(=O)(O)O [Compound 3, 4-O-[(R)-3-(Dodecanoyloxy)tetradecanoyl]-2-O-methyl-α-D-mannopyranosyl-(1↔1)-2-deoxy-2-[(R)-3-(dodecanoyloxy)tetradecanoylamino]-4-O-phosphoryl-3-O-[(R)-3-(tetradecanoyloxy)tetradecanoyl]-α-D-glucopyranoside] | less pronounced activation marker profile |  |  |  |  |
| CCCCCCCCCCCCCC(=O)O[C@H](CCCCCCCCCCC)CC(=O)O[C@@H]1[C@@H](NC(=O)C[C@@H](CCCCCCCCCCC)OC(=O)CCCCCCCCCCC)[C@@H](O[C@H]2O[C@H](COP(=O)(O)O)[C@@H](OC(=O)C[C@@H](CCCCCCCCCCC)OC(=O)CCCCCCCCC)[C@H](O)[C@@H]2OC)O[C@H](CO)[C@H]1OP(=O)(O)O [Compound 2, 4-O-[(R)-3-(Decanoyloxy)tetradecanoyl]-2-O-methyl-6-O-phosphoryl-α-mannopyranosyl-(1↔1)-2-deoxy-2-[(R)-3-(dodecanoyloxy)tetradecanoylamino]-4-O-phosphoryl-3-O-[(R)-3-(tetradecanoyloxy)tetradecanoyl]-α-D-glucopyranoside] |  | without any noticeable sign of degradation |  |  |  |
| CCCCCCCCCCCCCC(=O)O[C@H](CCCCCCCCCCC)CC(=O)O[C@@H]1[C@@H](NC(=O)C[C@@H](CCCCCCCCCCC)OC(=O)CCCCCCCCCCC)[C@@H](O[C@H]2O[C@H](COP(=O)(O)O)[C@@H](OC(=O)C[C@@H](CCCCCCCCCCC)OC(=O)CCCCCCCCCCC)[C@H](O)[C@@H]2OC)O[C@H](CO)[C@H]1OP(=O)(O)O [Compound 1, 4-O-[(R)-3-(Dodecanoyloxy)tetradecanoyl]-2-O-methyl-6-O-phosphoryl-α-D-mannopyranosyl-(1↔1)-2-deoxy-2-[(R)-3-(dodecanoyloxy)tetradecanoylamino]-4-O-phosphoryl-3-O-[(R)-3-(tetradecanoyloxy)tetradecanoyl]-α-D-glucopyranoside] | as potent as by LPS; also recorded: as potent as that with LPS | without any noticeable sign of degradation | comparable | detectable after 3h stimulation | more potent |

Source: paper PMC4191062, “Development of αGlcN(1↔1)αMan-Based Lipid A Mimetics as a Novel Class of Potent Toll-like Receptor 4 Agonists” (Journal of Medicinal Chemistry, 2014)
